This assay addresses Programmed cell death 1 ligand 1 (Homo sapiens, UniProt Q9NZQ7). In words: Inhibition of PD-L1 (unknown origin).

Numbered stars: 1 amine (or outer) side, 2 acyl side, 3 side chain; on linkers, the order of the positions; unused ones are H or OH. Bridge positions count the residues as written; N and C are the ends. Square brackets hold non-standard residues; d marks the D form. Peptide text beside a SMILES is read from it. ξ: configuration not given here. X1 = CC(C)C[C@H](N[*:1])C(=O)NC(=O)[*:2]; NMeNle = CCCC[C@H](NC)C(=O)O; NMeA = CN[C@@H](C)C(=O)O; ξP = O=C(O)C1CCCN1; ξC = NC(CS)C(=O)O; Sar = CNCC(=O)O

Sequence of Programmed cell death 1 ligand 1 (Q9NZQ7 whole entry): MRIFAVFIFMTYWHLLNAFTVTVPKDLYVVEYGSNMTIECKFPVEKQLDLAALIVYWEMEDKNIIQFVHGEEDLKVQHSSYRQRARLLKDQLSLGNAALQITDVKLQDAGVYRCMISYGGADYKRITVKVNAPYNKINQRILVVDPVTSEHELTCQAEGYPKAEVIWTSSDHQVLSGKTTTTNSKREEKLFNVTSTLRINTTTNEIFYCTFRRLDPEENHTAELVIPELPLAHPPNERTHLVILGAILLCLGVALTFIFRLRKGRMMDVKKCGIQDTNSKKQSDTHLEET

Broadly, the IC50 is the midpoint of a concentration-inhibition curve. Consider `CCCC[C@H]1C(=O)N(C)[C@@H](CCCC)C(=O)N[C@@H](CCCNC(=N)N)C(=O)NC(C(=O)NCC(N)=O)CSCC(=O)N[C@@H](Cc2ccccc2)C(=O)N(C)[C@@H](C)C(=O)N[C@@H](CC(N)=O)C(=O)N2CCCC2C(=O)N[C@@H](CC(C)C)C(=O)NC(=O)N(C)CC(=O)NCC(=O)N[C@@H](Cc2c[nH]c3ccccc23)C(=O)N[C@@H](Cc2c[nH]c3ccccc23)C(=O)N1C` (stereo partly specified) ({CH2CO}-F[NMeA]N[ξP][X1][Sar]GWW[NMeNle][NMeNle]R[ξC]G-NH2; thioether N-13), for which the IC50 was 5.2 nM.
